Measurements published in ChEMBL document CHEMBL4184232, “Novel (S)-1,3,4,12a-tetrahydropyrazino[2,1-c][1,4]benzodiazepine-6,12(2H,11H)-dione derivatives: Selective inhibition of MV-4-11 biphenotypic B myelomonocytic leukemia cells' growth is accompanied by reactive oxygen species overproduction and apoptosis” (Bioorg Med Chem Lett, 2018).
Active and inactive are the calls of the source. The rule behind the calls is not given here.

Legend:
MV4-11 [1] = assay: Antiproliferative activity against human MV4-11 cells incubated for 72 hrs by SRB assay; format: functional, cell-based; settings: MV4-11, 72 h
UMUC3 [2] = assay: Antiproliferative activity against human UM-UC-3 cells incubated for 72 hrs by SRB assay; format: functional, cell-based; settings: UMUC3, 72 h
MDA-MB-231 = assay: Antiproliferative activity against human MDA-MB-231 cells incubated for 72 hrs by SRB assay; format: functional, cell-based; settings: MDA-MB-231, 72 h
MCF7 = assay: Antiproliferative activity against human MCF7 cells incubated for 72 hrs by SRB assay; format: functional, cell-based; settings: MCF7, 72 h
LoVo = assay: Antiproliferative activity against human LoVo cells incubated for 72 hrs by SRB assay; format: functional, cell-based
HT-29 = assay: Antiproliferative activity against human HT-29 cells incubated for 72 hrs by SRB assay; format: functional, cell-based; settings: HT-29, 72 h
A549 = assay: Antiproliferative activity against human A549 cells incubated for 72 hrs by SRB assay; format: functional, cell-based; settings: A549, 72 h
A2780 = assay: Antiproliferative activity against human A2780 cells incubated for 72 hrs by SRB assay; format: functional, cell-based; settings: A2780, 72 h
BALB/3T3 = assay: Antiproliferative activity against mouse BALB/3T3 cells incubated for 72 hrs by SRB assay; format: cell-based; settings: BALB/3T3, 72 h
MV4-11 [3] = assay: Induction of apoptosis in human MV4-11 cells assessed as increase in caspase-3/7 activity using Ac-DEVD-ACC substrate incubated for 24 hrs by fluorescence based assay; format: functional, cell-based
UMUC3 [4] = assay: Induction of apoptosis in human UM-UC-3 cells assessed as increase in caspase-3/7 activity at 100 uM using Ac-DEVD-ACC substrate incubated for 24 hrs by fluorescence based assay; format: functional, cell-based
[5] = Ratio of induction of apoptosis in human UM-UC-3 cells assessed as increase in caspase-3/7 activity at 100 uM to induction of apoptosis in human MV4-11 cells assessed as increase in caspase-3/7 activity at 100 uM; format: functional
MV4-11 [6] = assay: Induction of cell cycle arrest in human MV4-11 cells assessed as reduction in accumulation at G2/M phase at 100 uM incubated for 24 hrs by propidium iodide staining based flow cytometry; format: functional
MV4-11 [7] = assay: Induction of cell cycle arrest in human MV4-11 cells assessed as reduction in accumulation at S phase at 100 uM incubated for 24 hrs by propidium iodide staining based flow cytometry; format: functional
MV4-11 [8] = assay: Induction of cell cycle arrest in human MV4-11 cells assessed as increase in accumulation at G0/G1 phase at 100 uM incubated for 24 hrs by propidium iodide staining based flow cytometry; format: functional
MV4-11 [9] = assay: Induction of cell cycle arrest in human MV4-11 cells assessed as increase in accumulation at subG1 phase at 100 uM incubated for 24 hrs by propidium iodide staining based flow cytometry; format: functional
UMUC3 [10] = assay: Induction of cell cycle arrest in human UM-UC-3 cells assessed as accumulation at G2/M phase at 5 to 100 uM incubated for 24 hrs by propidium iodide staining based flow cytometry; format: functional
UMUC3 [11] = assay: Induction of cell cycle arrest in human UM-UC-3 cells assessed as accumulation at S phase at 5 to 100 uM incubated for 24 hrs by propidium iodide staining based flow cytometry; format: functional
UMUC3 [12] = assay: Induction of cell cycle arrest in human UM-UC-3 cells assessed as accumulation at G0/G1 phase at 5 to 100 uM incubated for 24 hrs by propidium iodide staining based flow cytometry; format: functional
MV4-11 [13] = assay: Induction of oxidative stress in human MV4-11 cells assessed as increase in ROS production at 5 to 100 uM incubated for 6 hrs by DCF-DA and propidium iodide dye based flow cytometry; format: functional, cell-based
UMUC3 [14] = assay: Induction of oxidative stress in human UM-UC-3 cells assessed as increase in ROS production at 5 to 100 uM incubated for 6 hrs by DCF-DA and propidium iodide dye based flow cytometry; format: functional, cell-based
P388 = assay: Cytotoxicity against mouse P388 cells; format: functional
UMUC3 [15] = assay: Induction of apoptosis in human UM-UC-3 cells assessed as increase in caspase-3/7 activity at 5 to 100 uM using Ac-DEVD-ACC substrate incubated for 24 hrs by fluorescence based assay; format: functional, cell-based
UMUC3 [16] = assay: Induction of apoptosis in human UM-UC-3 cells at 5 to 100 uM incubated for 24 hrs by FITC-Annexin V staining based flow cytometry; format: functional, cell-based
MV4-11 [17] = assay: Induction of apoptosis in human MV4-11 cells at 5 to 100 uM incubated for 24 hrs by FITC-Annexin V staining based flow cytometry; format: functional, cell-based
Calf thymus DNA = assay: Binding affinity to calf thymus DNA assessed as increase in melting temperature incubated for 18 hrs by thermal denaturation study; format: nucleic-acid assay; settings: Bos taurus

SMILES	IC50 (MV4-11 [1])	IC50 (UMUC3 [2])	IC50 (MDA-MB-231)	IC50 (MCF7)	IC50 (LoVo)	IC50 (HT-29)	IC50 (A549)	IC50 (A2780)	IC50 (BALB/3T3)	other results
O=C1Nc2ccccc2C(=O)N2CCN(C(=O)c3ccccc3)C[C@H]12	28.8 µM	24.6 µM	–	–	–	–	–	–	–	–
O=C1Nc2ccccc2C(=O)N2CCN(C(=O)c3ccc(Cl)cc3)C[C@@H]12	32.3 µM	18.2 µM	–	–	–	–	–	–	–	–
O=C1Nc2ccccc2C(=O)N2CCN(C(=O)c3ccc(-c4ccccc4)cc3)C[C@@H]12	17.5 µM	61.5 µM	141 µM	47.3 µM	55 µM	154 µM	96.1 µM	35.8 µM	79.6 µM	Activity (MV4-11 [3]): Dose-dependent effect; Activity (UMUC3 [4]): Active; Ratio [5]: >2; Activity (MV4-11 [6]): Active; Activity (MV4-11 [7]): Active; Activity (MV4-11 [8]): Active; Activity (MV4-11 [9]): Active; Activity (UMUC3 [10]): inactive; Activity (UMUC3 [11]): inactive; Activity (UMUC3 [12]): inactive; Activity (MV4-11 [13]): Active; Activity (UMUC3 [14]): Active
O=C1Nc2ccccc2C(=O)N2CCN(C(=O)c3ccccc3I)C[C@H]12	39.8 µM	13.3 µM	–	–	–	–	–	–	–	–
O=C1Nc2ccc(Br)cc2C(=O)N2CCN(C(=O)c3ccc(-c4ccccc4)cc3)C[C@@H]12	8.7 µM	119 µM	113 µM	57 µM	22.1 µM	17.9 µM	48.1 µM	28.2 µM	121 µM	–
CN1C(=O)[C@@H]2CN(C(=O)c3ccc(-c4ccccc4)cc3)CCN2C(=O)c2ccccc21	63.1 µM	103 µM	134 µM	77.5 µM	58.3 µM	94.2 µM	92 µM	64.5 µM	37 µM	–
O=C1Nc2ccccc2C(=O)N2CCN(C(=O)c3ccccc3I)C[C@@H]12	44 µM	31.1 µM	–	–	–	–	–	–	–	–
O=C1Nc2ccc(Cl)cc2C(=O)N2CCN(C(=O)c3ccc(-c4ccccc4)cc3)C[C@@H]12	40.7 µM	94.4 µM	85.8 µM	50.9 µM	28.9 µM	46.4 µM	51 µM	29.7 µM	105 µM	–
O=C1Nc2ccccc2C(=O)N2CCN(C(=O)c3ccccc3)C[C@@H]12	27.1 µM	10.5 µM	–	–	–	–	–	–	–	–
O=C(O)CN1C(=O)[C@@H]2CN(C(=O)c3ccc(-c4ccccc4)cc3)CCN2C(=O)c2ccccc21	7.6 µM	3 µM	7.8 µM	7.6 µM	27.6 µM	17.8 µM	3.2 µM	19.6 µM	15 µM	–
O=C1Nc2ccccc2C(=O)N2C=C(c3ccc(Br)cc3)C[C@@H]12	–	–	–	–	–	–	–	–	–	GI50 (P388): 0.51 µM
O=C(c1ccc(-c2ccccc2)cc1)N1CCN2C(=O)c3ccccc3N(Cc3ccccc3)C(=O)[C@@H]2C1	10.8 µM	136 µM	41 µM	35.8 µM	11 µM	144 µM	106 µM	62.8 µM	136 µM	Activity (MV4-11 [3]): Dose-dependent effect; Activity (UMUC3 [15]): inactive; Activity (UMUC3 [16]): inactive; Activity (MV4-11 [17]): Active; Activity (MV4-11 [6]): Active; Activity (MV4-11 [7]): Active; Activity (MV4-11 [8]): Active; Activity (MV4-11 [9]): Active; Activity (UMUC3 [10]): inactive; Activity (UMUC3 [11]): inactive; Activity (UMUC3 [12]): inactive; Activity (MV4-11 [13]): Dose-dependent effect; Activity (UMUC3 [14]): Dose-dependent effect
O=C1Nc2ccccc2C(=O)N2CCN(C(=O)c3ccc(Cl)cc3)C[C@H]12	36.7 µM	22.3 µM	–	–	–	–	–	–	–	–
O=C(CN1C(=O)[C@@H]2CN(C(=O)c3ccc(-c4ccccc4)cc3)CCN2C(=O)c2ccccc21)OCc1ccccc1	44.2 µM	96.8 µM	30.3 µM	147 µM	23.1 µM	40.1 µM	34.1 µM	28 µM	31 µM	–
COc1cc2c(cc1O)NC(=O)[C@@H]1C[C@@H](O)CN1C2=O	–	–	–	–	–	–	–	–	–	deltaTm (Calf thymus DNA): 3.3 K
O=C1Nc2ccccc2C(=O)N2CCN(C(=O)c3ccc(-c4ccccc4)cc3)C[C@H]12	39.6 µM	19.6 µM	–	–	–	–	–	–	–	–
